The values that follow come from publication PMC7828111, “In Search for Multi-Target Ligands as Potential Agents for Diabetes Mellitus and Its Complications—A Structure-Activity Relationship Study on Inhibitors of Aldose Reductase and Protein Tyrosine Phosphatase 1B” (Molecules, 2021).

SMILES strings stand for the structures.

For one series, the target named is T1, human recombinant PTP1B (Homo sapiens, UniProt P18031).
T1 sequence (P18031 1-435): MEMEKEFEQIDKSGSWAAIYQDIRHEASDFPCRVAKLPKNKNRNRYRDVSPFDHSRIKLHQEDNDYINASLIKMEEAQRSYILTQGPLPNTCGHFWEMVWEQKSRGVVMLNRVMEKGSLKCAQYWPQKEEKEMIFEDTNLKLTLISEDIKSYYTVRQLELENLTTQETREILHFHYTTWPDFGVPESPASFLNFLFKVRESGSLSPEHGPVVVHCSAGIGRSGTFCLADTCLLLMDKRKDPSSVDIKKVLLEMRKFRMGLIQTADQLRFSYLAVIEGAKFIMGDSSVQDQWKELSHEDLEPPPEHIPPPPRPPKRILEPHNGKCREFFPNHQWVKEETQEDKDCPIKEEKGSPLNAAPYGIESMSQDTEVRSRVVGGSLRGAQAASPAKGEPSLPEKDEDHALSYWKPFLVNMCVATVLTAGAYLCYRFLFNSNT
Briefly: Inhibition of human recombinant PTP1B, p-nitrophenyl phosphate as substrate. Format: biochemical. As to conditions: for IC50: human recombinant PTP1B, mean ± S.E.M; for IC50 / remaining activity at 50 µM: pNPP as substrate; for remaining activity at 50 µM: residual activity, read-out: PTP1B % enzyme residual activity at the indicated concentration. The procedure:
PTP1B activity was determined as follow. […] After an appropriate interval time, the reaction was stopped diluting assay solution with 2 mL of KOH 0.1 M. The amount of p-nitrophenol released was determined measuring the absorbance of the solution at 400 nm using a spectrophotometer and a 1-cm optical pathlength (εmM of p-nitrophenol is 18). The IC50 value was determined measuring the pNPP hydrolysis rate in the presence of increasing inhibitor concentration. For each inhibitor, 15–16 different concentrations were used. All tests were carried out in triplicate and data obtained were normalized respect to control sample.

The subject of a further series is bovine lens AR. Also noted: method as in PMID 15781392. The settings on record: glyceraldehyde as substrate; cited from earlier work.
The target in the next series is T2, human recombinant AR (Homo sapiens, UniProt P15121).
T2 construct: made in house; host or cells: E. coli BL21(DE3)pLysS
As to the kind of experiment: Inhibition of human recombinant AR, L-idose as substrate (NADPH oxidation at 340 nm). The settings on record: for IC50: human recombinant AR, 2 mM L-idose as substrate, mean ± S.E.M; for AR inhibitory potency relative to the corresponding acetic acid analogues 1, 2: less potent than acetic acid analogue, analogue data ref 5; for Inhibition of human AR (in words): at concentrations up to 10 μM. Format: biochemical. The procedure:
The human recombinant AR was expressed in BL21(DE3)pLysS E. coli cells and purified to electrophoretic homogeneity as previously described. The purified enzyme (specific activity 5.0 U/mg) was stored at −80 °C in 10 mM sodium phosphate buffer pH 7.0 containing 2 mM dithiothreitol and 30% (w/v) glycerol. AR activity was determined at 37 °C as previously described evaluating the decrease in absorbance at 340 nm linked to NADPH oxidation. […] One unit of enzyme activity is the amount that catalyzes the conversion of 1 μmol of substrate/min in the above assay conditions.
All compounds tested as aldose reductase inhibitors were dissolved in DMSO and added to the assay mixture containing 8 mU of purified AR. The reaction was started by addition of the substrate. The DMSO concentration in all the assays was kept constant at 0.5% (v/v) in order to avoid effects on AR activity.
The IC50 values were determined by nonlinear regression analysis using Prism GraphPad 6.0 fitting experimental data to the following equation:(1) vi/v0= Max−Min/1+( I/IC50)^slope +Min
In the equation, vi/v0, represents the ratio between the activity measured in the presence of the inhibitor and the activity measured in the absence of inhibitor; Max and Min represent the expected maximal and minimal value of the activity and were fixed at 1 and zero, respectively. Slope, which describes the steepness of curve in the transition region, was fixed at −1. For each compound, at least five different concentrations of inhibitor in the triplicate assay were analyzed.

Setting [1] is: residual activity, L-idose as substrate, read-out: AR % enzyme residual activity at the indicated concentration.

One may read the IC50 as the concentration at which inhibition is half-maximal. For the molecule `O=C(O)C=CCN1C(=O)SC(=Cc2cccc(Oc3ccccc3)c2)C1=O` [5a], the IC50 on human recombinant PTP1B was found to be 42.1 ± 0.3 µM; on human recombinant AR it was 3.9 ± 0.2 µM. Further, the “Inhibitory activity towards bovine lens AR” value with bovine lens AR was “very scarce inhibitory activity”.
Broadly, the melting point is the temperature of the solid-liquid transition. `O=C(O)CCN1C(=O)S/C(=C\c2ccc(OCc3ccccc3)cc2)C1=O` [3d, 3-{(5Z)-[5-(4-Benzyloxyphenyl)methylidene]-2,4-dioxothiazolidin-3-yl}propanoic acid] displayed a melting point of 195 to 199 °C. The remaining activity at 50 µM at human recombinant PTP1B is 77%. For the same molecule, at human recombinant PTP1B (in vitro evaluation of selected virtual hits, previously conducted), the “Inhibition of human PTP1B by virtual screening hit (in words)” value was “moderate capability to inhibit”. Moreover, on human recombinant AR, the half-inhibitory concentration (IC50) was determined as 35.7 ± 3 µM.
`O=C(O)CCN1C(=O)S/C(=C\c2cccc(OCCc3ccccc3)c2)C1=O` [3e, 3-[(5Z)-2,4-Dioxo-{5-[3-(2-phenylethoxy)phenyl]methylidene}thiazolidin-3-yl]propanoic acid]: the melting point was 130 to 133 °C. Also, the remaining activity at 50 µM at human recombinant PTP1B was found to be 64%. Besides, at human recombinant AR, the IC50 was found to be 27.9 ± 3.1 µM and the “AR inhibitory potency relative to the corresponding acetic acid analogues 1, 2” value is given as “two orders of magnitude higher”.
With `O=C(O)CCN1C(=O)S/C(=C\c2cccc(OCc3ccccc3)c2)C1=O` [3c, 3-{(5Z)-[5-(3-Benzyloxyphenyl)methylidene]-2,4-dioxothiazolidin-3-yl}propanoic acid], the melting point lay in the range of 142 to 145 °C. Further, at human recombinant PTP1B, the remaining activity at 50 µM is 76%. The IC50 at human recombinant AR was found to be 14.3 ± 1 µM.
For the molecule `O=C(O)C=CCN1C(=O)SC(=Cc2ccc(-c3ccccc3)cc2)C1=O` [5c], the IC50 at human recombinant PTP1B is 34.8 ± 0.5 µM. For the same molecule, in the series on bovine lens AR, the “Inhibitory activity towards bovine lens AR” value is “almost inactive”. The remaining activity at 5 µM at human recombinant AR (at 5 µM, residual activity, L-idose as substrate, read-out: AR % enzyme residual activity at the indicated concentration) was determined as 88%. Moreover, the “Inhibition of human AR (in words)” value on human recombinant AR (L-idose as substrate) was “scarce inhibition”.
The molecule `O=C(O)C=CCN1C(=O)SC(=Cc2ccc3ccccc3c2)C1=O` [5e, 4-{(5Z)-[5-(2-Naphtylmethylidene)-2,4-dioxothiazolidin-3-yl]}-2-butenoic acid] registered a melting point of 235 to 238 °C. For the same molecule, the IC50 at human recombinant PTP1B worked out at 37.1 ± 0.4 µM. In addition, the remaining activity at 10 µM on human recombinant AR (setting [1]) was found to be 86%. The “Inhibition of human AR (in words)” value on human recombinant AR (L-idose as substrate) is listed as “scarce inhibition”.
Regarding `O=C(O)CCN1C(=O)/C(=C/c2cccc(OCc3ccccc3)c2)SC1=S` [4c, 3-{(5Z)-5-[(3-Benzyloxyphenyl)methylidene]-4-oxo-2-thioxothiazolidin-3-yl}propanoic acid], the IC50 at human recombinant PTP1B stood at 42.8 ± 0.7 µM; at human recombinant AR, 3.8 ± 0.1 µM.
In the case of `O=C(O)C=CCN1C(=O)SC(=Cc2ccc(Oc3ccccc3)cc2)C1=O` [5b], at human recombinant PTP1B, the IC50 was 39.7 ± 0.1 µM. In addition, the “Inhibitory activity towards bovine lens AR” value with bovine lens AR was “almost inactive”. The remaining activity at 10 µM on human recombinant AR (setting [1]) is 84%. For the same molecule, at human recombinant AR (L-idose as substrate), the “Inhibition of human AR (in words)” value is “scarce inhibition”.
`O=C(O)CCN1C(=O)S/C(=C\c2ccc(Oc3ccccc3)cc2)C1=O` [3b, 3-{(5Z)-[2,4-Dioxo-5-(4-phenoxyphenyl)methylidene]thiazolidin-3-yl}propanoic acid] showed a melting point of 198 to 202 °C. Besides, at human recombinant PTP1B, the remaining activity at 50 µM stood at 56%. Further, the IC50 on human recombinant AR amounted to 43.8 ± 7.1 µM.
The molecule `O=C(O)CCN1C(=O)S/C(=C\c2ccc(OCCc3ccccc3)cc2)C1=O` [3f, 3-[(5Z)-2,4-Dioxo-{5-[4-(2-phenylethoxy)phenyl]methylidene}thiazolidin-3-yl]propanoic acid] registered a melting point of 160 to 163 °C. In addition, the remaining activity at 50 µM on human recombinant PTP1B stood at 46%. In addition, at human recombinant AR, the IC50 was 50.2 ± 4.6 µM and the “AR inhibitory potency relative to the corresponding acetic acid analogues 1, 2” value is on record as “two orders of magnitude higher”.
On to `O=C(O)C=CCN1C(=O)SC(=Cc2cccc3ccccc23)C1=O` [5d, 4-{(5Z)-[5-(1-Naphtylmethylidene)-2,4-dioxothiazolidin-3-yl]}-2-butenoic acid], for which the melting point lay in the range of 170 to 172 °C. Besides, on human recombinant PTP1B, the concentration for half-maximal inhibition (IC50) was 40.3 ± 0.5 µM. Further, on human recombinant AR, the IC50 was 3.7 ± 0.2 µM.
Molecule `O=C(O)CCN1C(=O)S/C(=C\c2cccc(Oc3ccccc3)c2)C1=O` [3a, 3-{(5Z)-[2,4-Dioxo-5-(3-phenoxyphenyl)methylidene]thiazolidin-3-yl}propanoic acid] yielded a melting point of 177 to 180 °C. Besides, the remaining activity at 50 µM on human recombinant PTP1B is 79%. Moreover, the IC50 at human recombinant AR stood at 11.9 ± 0.9 µM.
On to `O=C(O)CCN1C(=O)/C(=C/c2ccc(Oc3ccccc3)cc2)SC1=S` [4b, 3-{(5Z)[4-Oxo-5-(4-phenoxyphenyl)methylidene-2-thioxothiazolidin-3-yl]}propanoic acid], for which the melting point fell in the range of 218 to 219 °C. On human recombinant PTP1B, the IC50 amounted to 29.5 ± 0.4 µM. In addition, the 50% inhibitory concentration (IC50) on human recombinant AR was 7.6 ± 0.6 µM.
In the same order, the values of `O=C(O)CCN1C(=O)/C(=C/c2ccc(OCc3ccccc3)cc2)SC1=S` [4d, 3-{(5Z)-5-[(4-Benzyloxyphenyl)methylidene]-4-oxo-2-thioxothiazolidin-3-yl}propanoic acid] are 170 to 173 °C, 34.9 ± 0.7 µM and 8.4 ± 0.7 µM.
